From patent US7842683B2, “Neurotherapeutic compositions and method” (Revaax Pharmaceuticals, LLC, priority 1999, dated 2010)

Columns and labels:
[1] = in vivo; cited from earlier work
male golden hamsters = assay: Resident/intruder paradigm of offensive aggression; type: in vivo, Syrian golden hamsters (Mesocricetus auratus)
Procedure: Male Syrian golden hamsters (Mesocricetus auratus) (140-150 g) obtained from Harlan Sprague-Dawley Laboratories (Indianapolis, Ind.) were housed individually in Plexiglas cages (24 cm×24 cm×20 cm), maintained on a reverse light:dark cycle (14L:10D; lights on at 19:00 hr) and provided food and water ad libitum. Animals were acclimated to the reverse light:dark cycle for at least two weeks before testing. All behavioral tests were conducted during the dark phase of the circadian cycle. All animals were acquired and cared for in accordance with the guidelines published in the Guide for the Care and Use of Laboratory Animals (National Institutes of Health Publications No. 85-23, Revised 1985).
(§1) Agonistic behavior can be classified as either offensive or defensive aggression (Blanchard and Blanchard, 1977; Adams, […]; Albert and Walsh, 1984). Offensive aggression is characterized by the aggressor initiating an attack on an opponent, while defensive aggression lacks active approach. Both types of aggression have their own unique neurobehavioral systems. The stimuli that elicit offensive and defense attack are different, as are the sequences of behaviors that accompany each agonistic response. […] Offensive aggression is easily studied using male golden hamsters tested in a resident/intruder paradigm, an established model of offensive aggression (Ferris and Potegal 1988). Placing an unfamiliar male hamster into the home cage of another male hamster elicits a well-defined sequence of agonistic behaviors from the resident that includes offensive aggression.
(§2) Hamsters are nocturnal and as such all behavioral tests were performed during the first four hrs of the dark phase under dim red illumination. The resident was scored for offensive aggression, e.g., latency to bite the intruder, the total number of bites, total contact time with the intruder and flank marking over a 10 min test period (Ferris and Potegal, 1988). Flank marking is a form of olfactory communication in which a hamsters arches its back and rubs pheromone producing flank glands against objects in the environment (Johnson, 1986).
Parametric data, i.e., latencies and contact time, were analyzed with a one-way ANOVA followed by Newman-Keuls post hoc tests. Non parametric data, i.e., number of bites and flank marks, were analyzed with Kruskal-Wallis tests followed by Mann-Whitney U tests to determine differences between groups. Two sample comparisons were analyzed with paired and unpaired t-Tests for parametric data and Wilcoxon and Mann-Whitney Tests for paired and unpaired non-parametric data, respectively.
as §1, with “by an” for “by the”, “an opponent; while,” for “an opponent, while”, “Potegal 1988) in the context of defending the home burrow.” for “Potegal 1988).”
as §2, with “Flank marking is a form of olfactory communication in which a hamsters arches its back and rubs pheromone producing flank glands against objects in the environment (Johnson, 1986).” left out

hamsters = assay: Olfactory discrimination: latency to find hidden sunflower seeds; type: in vivo, Syrian golden hamsters (Mesocricetus auratus); settings: 1 mg/kg intracerebroventricular, sixty min, five min observation
Procedure: Sixteen animals were treated with vehicle or 50 μg/kg Mox and tested for olfactory discrimination by measuring their latency to find hidden sunflower seeds (FIG. 5). The injections were counterbalanced with each animal receiving each treatment. Prior to testing animals were fasted for 24 hrs. Ninety minutes after injection animals were briefly taken from their home cage while six sunflower seeds were buried under the bedding in one corner. Animals were placed back into their home cage and scored for the latency to find the seeds in a ten min observation period. […] In fact, not one of the sixteen animals consumed all of the seeds following saline as compared to all animals treated with Mox.
Six animals received an intracerebroventricular injection of vehicle or 1 mg/kg PPP and tested for olfactory discrimination by measuring their latency to find hidden sunflower seeds (FIG. 16). The injections were counterbalanced with each animal receiving each treatment. Prior to testing animals were fasted for 24 hrs. Sixty min. After injection animals were briefly taken from their home cage while six sunflower seeds were buried under the bedding in one corner. Animals were placed back into their home cage and scored for the latency to find the seeds in a five min. Observation period.

[2] = Estimated fluid and brain concentrations after dosing hamsters; type: in vivo, hamster
Procedure: The adult male hamsters used in these studies weighed around 125 g. […] CLAV has a volume of distribution approximating the extracellular fluid volume. The extracellular water content of lean body mass is approximately 22%.
(§3) To this end, animals were treated with N-acetyl-beta-aspartyl-glutamic acid (beta-NAAG), a competitive inhibitor of NAALADase (Serval et al., 1992) and tested in the seed finding model of anxiety. The study was similar to that outlined in Section I with one notable exception. […] Beta-NAAG (FW 304) was given in a dose of 3 ng in a volume of 1 μl saline ICV. The average adult hamster brain weights ca. 1.2 g of which 22% is extracellular fluid.

golden hamsters = assay: Seed finding model of anxiety; type: in vivo, Syrian golden hamsters (Mesocricetus auratus)
Description: Clavulanic acid (CLAV) is structurally similar to the beta-lactam antibiotics. A most robust and simple bioassay for screening beta-lactams for CNS activity is the golden hamster seed finding model of anxiety. Briefly, hamsters are deprived of food overnight. The following day they are exposed to the additional stress of being taken from their home cage and placed in a novel environment for a few minutes. This manipulation stimulates the release of the stress hormone cortisol (FIG. 37). During their absence from the home cage, sunflower seeds are hidden under the bedding in one of the corners. When returned to the home cage, hamsters routinely scramble along the walls for 1-2 min before settling down, locating and eating the seeds. However, animals treated with the benzodiazepine anxiolytic chlordiazepoxide find seeds in less than 10 sec.
Male, Syrian golden hamsters (Mesocricetus auratus) (120-130 g) obtained from Harlan Sprague-Dawley Laboratories (Indianapolis, Ind.) were housed individually in Plexiglas cages (24 cm×24 cm×20 cm), maintained on a reverse light:dark cycle (14L:10D; lights on at 19:00 hr) and provided food and water ad libitum. A range of concentrations of CLAV (saline vehicle, 0.1, 1.0, 10, 100 1,000 ng/kg) were tested in six groups of hamsters (4-8/group)(FIG. 25). All tests were conducted during the dark phase of the circadian cycle under dim red illumination. Prior to testing all animals were fasted for 20-24 hrs. Ninety min after intraperitoneal (IP) injection of drug, animals were taken from their home cage and placed into a holding cage for 2 min. During their absence, six sunflower seeds were buried under the bedding in one corner of their home cage. Animals were placed back into their home cage randomly facing any one of the empty corners and timed for their latency to find the seeds in a five min observation period. Latency times were analyzed with a one-way ANOVA followed by Scheffe's post hoc tests. Assumption of equal variances was tested (Hartley's F-max=2.1 p>0.05)
as §3, with “It was hypothesized that CLAV functioned as an anxiolytic in the seed finding assay by blocking NAALADase activity in the brain. If this notion were true then it would be predicted that drugs known to block NAALADase should also enhance seed finding. To” for “To”, “fluid. The estimated beta-NAAG concentration was 11 ng/ml or 36 nM.” for “fluid.”
Two groups of six animals each were fasted overnight as previously described and tested the following day. One group was treated with beta-NAAG and the other saline vehicle and one hr later timed for latency to find the hidden sunflower seeds. A Student t-test for unpaired data was used for statistical comparisons.

[3] = high dose ca. 5 mg/kg, 9 mM, IP
[4] = high dose ca. 5 mg/kg, 9 mM, IP, 90 min

Row | Compound | blood-brain barrier transport / CNS penetrability [1] | contact time (male golden hamsters; equimolar (90 μM) IP, 90 min) | flank marking (male golden hamsters; equimolar (90 μM) IP, 90 min) | contact time (male golden hamsters; [3]) | flank marking (male golden hamsters; [3]) | latency to bite (male golden hamsters; [4]) | number of bites (male golden hamsters; [4]) | further results
1 | CO[C@@]1(NC(=O)Cc2cccs2)C(=O)N2C(C(=O)O)=C(COC(N)=O)CS[C@@H]21 [Cef, Cefoxitin] | poor CNS penetrability | no significant treatment effect | no significant treatment effect | no significant treatment effect | no significant treatment effect | – | – | –
2 | CC1(C)S[C@@H]2[C@H](NC(=O)C(C(=O)O)c3ccccc3)C(=O)N2[C@H]1C(=O)O (stereo partly drawn) [Carb, Carbenicillin] | – | no significant treatment effect | no significant treatment effect | no significant treatment effect | no significant treatment effect | significantly delayed | significantly reduced | –
3 | Ala-D-γ-Glu-Lys-D-Ala-D-Ala [PPP] | – | – | – | – | – | – | – | contact time (male golden hamsters; ca. 1 mg/kg ICV): no significant difference; flank marking (male golden hamsters; ca. 1 mg/kg ICV): no significant difference; number of bites (male golden hamsters; ca. 1 mg/kg ICV, sixty minutes): reduced; latency to bite (male golden hamsters; ca. 1 mg/kg in 1 μl into lateral ventricle, sixty minutes): significantly increased; latency to find the seed (hamsters): significantly (p<0.05) reduced
4 | CC1(C)S[C@@H]2[C@H](NC(=O)[C@H](N)c3ccccc3)C(=O)N2[C@H]1C(=O)O [Amp, Ampicillin] | – | no significant treatment effect | no significant treatment effect | no significant treatment effect | no significant treatment effect | significantly delayed | significantly reduced | number of bites (male golden hamsters; equimolar (90 μM) IP, 90 min): significantly reduced; latency to bite (male golden hamsters; equimolar (90 μM, equal to 50 μg/kg Mox) IP, 90 min): significantly delayed
5 | CC(=O)N[C@@H](CC(=O)N[C@@H](CCC(=O)O)C(=O)O)C(=O)O [beta-NAAG, N-acetyl-beta-aspartyl-glutamic acid] | does not readily cross the blood-brain barrier | – | – | – | – | – | – | measures of offensive aggression (latency to bite, bites, contact time, flank marking) (male golden hamsters; 3 ng ICV, after the seed finding assay): no significant differences; estimated concentration in brain extracellular fluid (molar) ([2]; beta-NAAG 3 ng ICV, FW 304): 36 nM; estimated concentration in brain extracellular fluid ([2]; beta-NAAG 3 ng in 1 μl ICV, brain ca. 1.2 g, 22% extracellular fluid): 11 ng/mL; latency to find the seeds vs saline vehicle (golden hamsters; 3 ng ICV, one hr, five min observation): significantly (p<0.001) different; mean latency to find the seeds (golden hamsters; 3 ng/μl microinjected, former vehicle animals three days later): 21.8 ± 9.7 s
6 | CC1(C)S[C@@H]2[C@H](NC(=O)[C@H](N)c3ccc(O)cc3)C(=O)N2[C@H]1C(=O)O [Amox, Amoxicillin] | – | no significant treatment effect | no significant treatment effect | – | – | – | – | aggressive behavior (male golden hamsters; 1 mg/kg (ca. 2 mM) IP, 90 min): not significantly altered
